Tested on: α-Glucosidase enzyme (from Saccharomyces cerevisiae)
Test: α-glucosidase inhibitory assay (p-NPG substrate, spectrophotometric)
Format: biochemical
Details: mean SD (n = 3); for Inhibition (%): tested concentration of all samples 100 μM; for IC50: α-glucosidase, p-NPG substrate
Procedure: A total of 200 μL of reaction mixture, containing 70 μL of 0.1 M phosphate buffer (pH 6.8), 10 μL of 1.0 mg/mL reduced glutathione solution, and 10 μL of the sample solution (test concentration at 0.1 mg/mL), was added to each well of a 96-well plate, followed by the addition of 20 μL of 0.5 U/mL α-glucosidase solution. The plate was incubated at 37 °C for 15 min, and then 20 μL of p-Nitrophenyl α-D-glucopyranoside substrate was added to the mixture to start the reaction. The reaction mixture was incubated at 37 °C for 30 min, and then 70 μL of 0.1 M Na2CO3 solution was added to the mixture to terminate the reaction. All samples were analyzed in triplicate with three different concentrations near the IC50 values. The absorbance (A) was immediately recorded at 400 nm, using a spectrophotometrical method to estimate the enzymatic activity. The inhibition percentage was calculated by the following equation: Inhibitory rate (%) = [1 − (Atest − Ablank)/(control Atest − control Ablank)] × 100%.
Here, Atest represents the absorbance value of the experimental sample, Ablank represents the absorbance value of sample blank, control Atest represents the absorbance value of the control, and control Ablank represents the absorbance value of the blank.

C[C@H]1O[C@H](O[C@H]2[C@H](O)[C@@H](O)[C@@H](O[C@H]3[C@H](O)[C@@H](O)C(O)O[C@@H]3CO)O[C@@H]2CO)[C@H](O)[C@@H](O)[C@@H]1N[C@H]1C=C(CO)[C@@H](O)[C@H](O)[C@H]1O (some centres unmarked) [Acarbose, acarbose, reference compound]
Inhibition (%): 78.35 ± 3.41%

CC1C(COO)=CCC2(C)CCC3(C)C(CCC4C5(C)CCC(O)C(C)(C)C5CCC43C)C12 (stereo not drawn) [Compound 1, 3β-hydroxy-30-hydroperoxy-20-taraxastene]
Inhibition (%): 99.46 ± 1.04%
IC50: 18.3 ± 1.27 µM

COC1C=C(C)C(C)C2C3CCC4C5(C)CCC(O)C(C)(C)C5CCC4(C)C3(C)CCC12C (stereo not drawn) [Compound 2, 3β-hydroxy-22α-methoxy-20-taraxastene]
Inhibition (%): 93.29 ± 0.74%
IC50: 27 ± 0.89 µM

C[C@@H]1C=C[C@H](O)[C@]2(C)CC[C@]3(C)[C@H](CCC4[C@@]5(C)CC[C@H](O)C(C)(C)C5CC[C@]43C)C12 (stereo partly drawn) [Compound 3, 30-nor-3β,22α-dihydroxy-20-taraxastene]
Inhibition (%): 70.34 ± 2.73%
IC50: 44.6 ± 1.39 µM

CC1=CC(O)C2(C)CCC3(C)C(CCC4C5(C)CCC(O)C(C)(C)C5CCC43C)C2C1C (stereo not drawn) [Compound 4, 3β,22α-dihydroxy-20-taraxastene]
Inhibition (%): 94.95 ± 1.67%
IC50: 17.5 ± 1.42 µM

CC1=CC(=O)[C@]2(C)CC[C@]3(C)[C@H](CCC4[C@@]5(C)CCC(=O)C(C)(C)C5CC[C@]43C)C2[C@@H]1C (some centres unmarked) [Compound 5, 20-taraxastene-3,22-dione]
Inhibition (%): 60.78 ± 5.81%
IC50: 68.9 ± 1.82 µM

CC(=O)O[C@H]1CC[C@@]2(C)C(CC[C@]3(C)C2CC[C@@H]2C4[C@H](C)C(C)=CC(=O)[C@]4(C)CC[C@]23C)C1(C)C (stereo partly drawn) [Compound 6, 3β-acetoxy-20-taraxasten-22-one]
Inhibition (%): 63.06 ± 7.44%
IC50: 54.2 ± 2.25 µM

CC1=CC(=O)C2(C)CCC3(C)C(CCC4C5(C)CCC(O)C(C)(C)C5CCC43C)C2C1C (stereo not drawn) [Compound 7, 3β-hydroxy-20-taraxasten-22-one]
Inhibition (%): 95.59 ± 2.34%
IC50: 22.7 ± 0.25 µM

C[C@@H]1C=CC[C@]2(C)CC[C@]3(C)[C@H](CCC4[C@@]5(C)CC[C@H](O)C(C)(C)C5CC[C@]43C)C12 (stereo partly drawn) [Compound 8, 30-nor-3β-hydroxy-20-taraxastene]
Inhibition (%): 59.19 ± 3.81%
IC50: 80.1 ± 2.13 µM

From publication PMC6571863, “Bioassay-Guided Isolation of Triterpenoids as α-Glucosidase Inhibitors from Cirsium setosum” (Molecules, 2019)
